Test results: US9636418B2 (priority 2013, dated 2017)
Where “and” joins values, the source holds several entries; their conditions need not be identical. Identical values can stand only once. Like-named read-outs stand apart in the source and are kept apart here.

Key:
[1] = target: hNav1.5 (Homo sapiens, UniProt Q14524); experiment: cell-based; conditions: for IC50: PatchXpress, read-out: PX hNav1.5 Tonic IC50
[2] = target: hNav1.4 (Homo sapiens, UniProt P35499); experiment: cell-based; conditions: for IC50: PatchXpress, read-out: PX hNav1.4 Tonic IC50
hNav1.4, sequence (P35499 whole entry): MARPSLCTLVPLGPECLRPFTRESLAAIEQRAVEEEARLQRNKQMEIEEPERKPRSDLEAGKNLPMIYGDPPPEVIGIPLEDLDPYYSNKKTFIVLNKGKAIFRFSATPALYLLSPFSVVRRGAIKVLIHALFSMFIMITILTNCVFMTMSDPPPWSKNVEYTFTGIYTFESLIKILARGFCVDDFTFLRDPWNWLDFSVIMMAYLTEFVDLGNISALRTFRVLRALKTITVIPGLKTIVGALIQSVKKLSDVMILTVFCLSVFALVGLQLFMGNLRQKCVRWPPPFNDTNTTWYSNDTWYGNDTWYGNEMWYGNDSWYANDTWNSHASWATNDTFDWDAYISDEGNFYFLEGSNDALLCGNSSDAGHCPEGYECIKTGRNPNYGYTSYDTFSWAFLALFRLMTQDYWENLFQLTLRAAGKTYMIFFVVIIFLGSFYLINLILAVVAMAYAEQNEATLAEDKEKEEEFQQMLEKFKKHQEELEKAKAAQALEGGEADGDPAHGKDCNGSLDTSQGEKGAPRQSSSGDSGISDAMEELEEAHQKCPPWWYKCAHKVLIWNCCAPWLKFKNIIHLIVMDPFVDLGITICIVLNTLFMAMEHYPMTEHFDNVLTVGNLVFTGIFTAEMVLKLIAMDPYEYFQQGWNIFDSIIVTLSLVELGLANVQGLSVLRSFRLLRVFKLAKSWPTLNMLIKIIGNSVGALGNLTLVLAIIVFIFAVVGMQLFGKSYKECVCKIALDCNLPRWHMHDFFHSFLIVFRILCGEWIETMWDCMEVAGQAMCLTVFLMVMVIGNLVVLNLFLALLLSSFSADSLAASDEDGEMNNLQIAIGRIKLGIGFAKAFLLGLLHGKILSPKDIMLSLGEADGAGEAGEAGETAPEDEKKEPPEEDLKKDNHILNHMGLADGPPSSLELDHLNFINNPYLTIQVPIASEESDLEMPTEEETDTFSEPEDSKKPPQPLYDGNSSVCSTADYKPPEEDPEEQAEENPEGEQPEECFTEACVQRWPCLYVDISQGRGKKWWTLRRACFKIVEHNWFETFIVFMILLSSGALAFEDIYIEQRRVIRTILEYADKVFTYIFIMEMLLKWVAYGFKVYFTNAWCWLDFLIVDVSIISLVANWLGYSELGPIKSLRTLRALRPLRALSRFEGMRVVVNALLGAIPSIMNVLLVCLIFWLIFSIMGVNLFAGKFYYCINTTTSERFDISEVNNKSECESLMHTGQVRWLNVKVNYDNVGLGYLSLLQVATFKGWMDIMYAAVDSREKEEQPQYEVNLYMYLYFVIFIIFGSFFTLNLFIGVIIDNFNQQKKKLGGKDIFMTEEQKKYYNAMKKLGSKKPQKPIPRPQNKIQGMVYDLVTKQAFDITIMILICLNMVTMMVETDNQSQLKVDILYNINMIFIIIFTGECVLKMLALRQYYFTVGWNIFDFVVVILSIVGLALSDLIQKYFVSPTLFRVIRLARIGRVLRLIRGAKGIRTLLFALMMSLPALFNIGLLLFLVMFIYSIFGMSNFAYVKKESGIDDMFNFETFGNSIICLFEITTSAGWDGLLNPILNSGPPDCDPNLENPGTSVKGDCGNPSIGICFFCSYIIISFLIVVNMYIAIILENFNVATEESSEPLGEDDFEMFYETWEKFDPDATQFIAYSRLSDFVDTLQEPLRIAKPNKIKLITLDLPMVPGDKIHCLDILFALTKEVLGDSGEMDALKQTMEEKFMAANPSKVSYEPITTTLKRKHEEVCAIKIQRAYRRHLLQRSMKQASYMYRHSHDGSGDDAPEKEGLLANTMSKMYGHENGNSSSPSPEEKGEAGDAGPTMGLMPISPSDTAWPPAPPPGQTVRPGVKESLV

[3] = * = at high concentrations compound would wash off slowly or not at all

hNav1.5, sequence (Q14524 whole entry): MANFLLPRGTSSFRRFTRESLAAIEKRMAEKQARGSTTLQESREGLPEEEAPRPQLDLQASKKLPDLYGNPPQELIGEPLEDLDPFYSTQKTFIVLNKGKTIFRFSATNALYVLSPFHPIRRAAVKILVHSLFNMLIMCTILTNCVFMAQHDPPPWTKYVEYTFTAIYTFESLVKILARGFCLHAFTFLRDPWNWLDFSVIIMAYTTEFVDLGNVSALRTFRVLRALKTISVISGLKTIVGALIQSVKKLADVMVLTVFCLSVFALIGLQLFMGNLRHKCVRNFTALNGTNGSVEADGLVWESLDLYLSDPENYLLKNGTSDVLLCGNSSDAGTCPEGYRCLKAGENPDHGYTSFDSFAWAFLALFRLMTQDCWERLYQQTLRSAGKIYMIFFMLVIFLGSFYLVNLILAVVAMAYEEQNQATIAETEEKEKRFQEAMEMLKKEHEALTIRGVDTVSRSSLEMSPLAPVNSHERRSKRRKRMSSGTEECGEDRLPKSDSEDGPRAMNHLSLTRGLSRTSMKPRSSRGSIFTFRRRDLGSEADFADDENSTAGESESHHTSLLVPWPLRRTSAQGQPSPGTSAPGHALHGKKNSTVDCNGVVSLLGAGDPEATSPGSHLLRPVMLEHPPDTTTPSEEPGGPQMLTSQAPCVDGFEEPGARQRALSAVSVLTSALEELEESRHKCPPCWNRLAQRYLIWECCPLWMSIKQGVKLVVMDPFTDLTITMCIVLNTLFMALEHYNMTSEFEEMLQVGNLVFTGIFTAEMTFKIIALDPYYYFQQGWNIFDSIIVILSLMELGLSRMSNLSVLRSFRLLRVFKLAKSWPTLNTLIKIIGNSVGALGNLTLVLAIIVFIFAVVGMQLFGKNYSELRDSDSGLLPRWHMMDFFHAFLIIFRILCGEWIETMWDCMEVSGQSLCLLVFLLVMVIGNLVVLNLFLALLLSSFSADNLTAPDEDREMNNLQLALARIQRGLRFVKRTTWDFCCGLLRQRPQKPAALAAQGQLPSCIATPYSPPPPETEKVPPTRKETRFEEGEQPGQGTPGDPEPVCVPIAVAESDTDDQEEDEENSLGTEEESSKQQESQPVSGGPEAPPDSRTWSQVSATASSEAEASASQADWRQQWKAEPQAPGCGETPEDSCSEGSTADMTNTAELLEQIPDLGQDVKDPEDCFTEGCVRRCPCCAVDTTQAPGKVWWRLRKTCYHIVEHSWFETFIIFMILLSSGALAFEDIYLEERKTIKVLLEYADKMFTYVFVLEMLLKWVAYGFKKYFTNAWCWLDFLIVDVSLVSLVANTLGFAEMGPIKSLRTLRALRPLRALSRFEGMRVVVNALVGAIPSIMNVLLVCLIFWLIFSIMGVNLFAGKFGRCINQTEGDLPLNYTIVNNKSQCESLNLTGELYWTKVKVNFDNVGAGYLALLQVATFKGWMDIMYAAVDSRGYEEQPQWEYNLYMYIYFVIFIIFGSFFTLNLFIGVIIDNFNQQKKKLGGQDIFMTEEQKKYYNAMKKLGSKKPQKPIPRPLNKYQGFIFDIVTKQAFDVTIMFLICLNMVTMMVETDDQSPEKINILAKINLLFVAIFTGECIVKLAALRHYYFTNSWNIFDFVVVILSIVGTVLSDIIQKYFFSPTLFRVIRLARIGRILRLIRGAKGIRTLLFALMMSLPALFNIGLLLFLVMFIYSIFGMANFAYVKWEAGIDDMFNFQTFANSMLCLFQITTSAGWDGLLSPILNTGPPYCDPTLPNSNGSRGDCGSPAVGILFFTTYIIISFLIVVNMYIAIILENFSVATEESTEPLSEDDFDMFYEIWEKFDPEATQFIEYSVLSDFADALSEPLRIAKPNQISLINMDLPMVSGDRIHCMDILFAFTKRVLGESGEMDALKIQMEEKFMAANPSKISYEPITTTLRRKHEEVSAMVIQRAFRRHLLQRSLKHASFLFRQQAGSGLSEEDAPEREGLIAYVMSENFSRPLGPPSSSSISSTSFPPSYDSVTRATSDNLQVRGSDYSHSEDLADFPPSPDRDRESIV

Compound: C#CC[C@@H]1NC(=O)[C@@H]2CSSC[C@H](NC(=O)[C@H](Cc3ccc(O)cc3)NC(=O)[C@@H](N)CC#N)C(=O)N[C@@H](CCC(N)=O)C(=O)N[C@@H](CCCCN)C(=O)N[C@@H](Cc3c[nH]c4ccccc34)C(=O)N[C@@H](CCCC)C(=O)N[C@@H](Cc3c[nH]c4ccccc34)C(=O)N[C@@H]([C@@H](C)O)C(=O)N[C@H]3CSSC[C@H](NC(=O)[C@H](CCCNC(=N)N)NC(=O)[C@H](CC(C)C)NC(=O)CNC1=O)C(=O)N[C@@H](CCCCN)C(=O)N[C@@H](CC(C)C)C(=O)N[C@@H](Cc1c[nH]c4ccccc14)C(=O)N[C@H](C(=O)N[C@@H](CCCNC(=N)N)C(=O)N[C@@H](CCCCN)C(=O)N[C@@H](CCC(=O)O)C(=O)N[C@H](C(N)=O)[C@@H](C)CC)CSSC[C@H](NC(=O)[C@H](C)NC(=O)[C@H](CCCNC(=N)N)NC(=O)[C@H](CCCCN)NC(=O)[C@H](CO)NC(=O)[C@H](CC(=O)O)NC3=O)C(=O)N2 [compound 395]
- IC50 ([1]; tonic block): 710 nM
- IC50 ([2]; tonic block): 62.5 nM and 212 nM

Compound: CSCC[C@@H]1NC(=O)[C@H](Cc2c[nH]c3ccccc23)NC(=O)[C@H](CCCCN)NC(=O)[C@H](CCC(N)=O)NC(=O)[C@@H](NC(=O)[C@@H](N)Cc2ccc(O)cc2)CSSC[C@@H]2NC(=O)[C@@H]3CSSC[C@@H](C(=O)N[C@@H](CCCCN)C(=O)N[C@@H](Cc4ccc(O)cc4)C(=O)N[C@@H](CC(N)=O)C(=O)N[C@@H](CC(C)C)C(N)=O)NC(=O)[C@H](Cc4c[nH]c5ccccc45)NC(=O)[C@H](CC(C)C)NC(=O)[C@H](CCC(=O)O)NC(=O)[C@H](CSSC[C@H](NC(=O)[C@H]([C@@H](C)O)NC(=O)[C@H](Cc4c[nH]c5ccccc45)NC1=O)C(=O)N[C@@H](CC(=O)O)C(=O)N[C@@H](CO)C(=O)N[C@@H](CCC(=O)O)C(=O)N[C@@H](CCCNC(=N)N)C(=O)N[C@@H](CCCCN)C(=O)N3)NC(=O)[C@H](C(C)C)NC(=O)[C@H](Cc1ccc(O)cc1)NC(=O)CNC(=O)[C@H](CCC(=O)O)NC2=O [compound 48]
- Nav1.5/Nav1.7 [1]: 61
- Nav1.4/Nav1.7 [2]: 3

Compound: C#CC[C@H](N)C(=O)NCCCC[C@@H]1NC(=O)[C@H](CCCNC(=N)N)NC(=O)[C@H](CCCCN)NC(=O)[C@H](CO)NC(=O)[C@H](CC(=O)O)NC(=O)[C@@H]2CSSC[C@@H]3NC(=O)[C@H](CCCNC(=N)N)NC(=O)[C@H](CC(C)C)NC(=O)CNC(=O)[C@H](CCC(=O)O)NC(=O)[C@H](CSSC[C@H](NC(=O)[C@H](Cc4ccc(O)cc4)NC(=O)[C@@H](N)CC#N)C(=O)N[C@@H](CCC(N)=O)C(=O)N[C@@H](CCCCN)C(=O)N[C@@H](Cc4c[nH]c5ccccc45)C(=O)N[C@@H](CCCC)C(=O)N[C@@H](Cc4c[nH]c5ccccc45)C(=O)N[C@@H]([C@@H](C)O)C(=O)N2)NC(=O)[C@H](CSSC[C@@H](C(=O)N[C@@H](CCCNC(=N)N)C(=O)N[C@@H](CCCCN)C(=O)N[C@@H](CCC(=O)O)C(=O)N[C@H](C(N)=O)[C@@H](C)CC)NC(=O)[C@H](Cc2c[nH]c4ccccc24)NC(=O)[C@H](CC(C)C)NC(=O)[C@H](CCCCN)NC3=O)NC1=O [compound 392]
- IC50 ([1]; tonic block): 920 nM and 1450 nM and 2160 nM
- IC50 ([2]; tonic block): 86.1 nM and 124 nM

Compound: CC[C@H](C)[C@H](NC(=O)[C@H](CCCCN)NC(=O)[C@H](CCCNC(=N)N)NC(=O)[C@@H]1CSSC[C@@H]2NC(=O)[C@H](C)NC(=O)[C@H](CCCNC(=N)N)NC(=O)[C@H](CCCCN)NC(=O)[C@H](CO)NC(=O)[C@H](CC(=O)O)NC(=O)[C@@H]3CSSC[C@H](NC(=O)[C@H](CCCNC(=N)N)NC(=O)[C@H](CC(C)C)NC(=O)CNC(=O)[C@H](CCC(=O)O)NC(=O)[C@H](CSSC[C@H](NC(=O)[C@@H](N)Cc4ccc(O)cc4)C(=O)N[C@@H](CCC(N)=O)C(=O)N[C@@H](CCCCN)C(=O)N[C@@H](Cc4c[nH]c5ccccc45)C(=O)N[C@@H](CCSC)C(=O)N[C@@H](Cc4c[nH]c5ccccc45)C(=O)N[C@@H]([C@@H](C)O)C(=O)N3)NC2=O)C(=O)N[C@@H](CCCCN)C(=O)N[C@@H](CC(C)C)C(=O)N[C@@H](Cc2c[nH]c3ccccc23)C(=O)N1)C(=O)N[C@@H](CCC(=O)O)C(N)=O [compound 70]
- IC50 [1, 3]: > 10000 nM
- Nav1.5/Nav1.7 ([1]; ratio of PX IC50 values): >38
- IC50 [2, 3]: 11300 nM
- Nav1.4/Nav1.7 ([2]; ratio of PX IC50 values): 43
